Measured values as given in patent US10131652B2, “Pyrimidinyloxy benzene derivatives as herbicides” (E. I. DU PONT DE NEMOURS AND COMPANY, priority 2014, dated 2018).

Columns and labels:
Type in all cases: in vivo
[1] = tested on: Italian ryegrass (Lolium multiflorum); test: Test B pre-/postemergence plant response
How it was run: (§1)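 Seeds in loam–sand blend given preemergence soil spray; separately, plants at one- to two-leaf stage (2–10 cm) sprayed postemergence, compounds in non-phytotoxic solvent with surfactant. Injury rated visually versus untreated controls after ~10 days in greenhouse, 0 (no effect) to 100 (complete control).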

[2] = tested on: barnyardgrass (Echinochloa crus-galli); test: Test B pre-/postemergence plant response
How it was run: as §1

[3] = tested on: corn (Zea mays); test: Test B pre-/postemergence plant response
How it was run: as §1

[4] = tested on: giant foxtail (Setaria faberii); test: Test B pre-/postemergence plant response
How it was run: as §1

[5] = tested on: kochia (Kochia scoparia); test: Test B pre-/postemergence plant response
How it was run: as §1

[6] = tested on: pigweed (Amaranthus retroflexus); test: Test B pre-/postemergence plant response
How it was run: as §1

[7] = tested on: ragweed (common ragweed, Ambrosia elatior); test: Test B pre-/postemergence plant response
How it was run: as §1

[8] = tested on: wheat (Triticum aestivum); test: Test B pre-/postemergence plant response
How it was run: as §1

[9] = tested on: blackgrass (Alopecurus myosuroides); test: Test B postemergence plant response
How it was run: (§2)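 Weeds grown in loam soil/sand pots were sprayed postemergence at 2 to 10 cm height, one- to two-leaf stage. After approximately 10 days in greenhouse, injury was rated visually against untreated controls on a 0 (no effect) to 100 (complete control) scale; dash means no test result.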

[10] = tested on: galium (catchweed bedstraw, Galium aparine); test: Test B postemergence plant response
How it was run: as §2

[11] = tested on: barnyardgrass (Echinochloa crus-galli); test: Test C flooded paddy test plant response; conditions: Flood, 250 g ai/ha; scale of 0 to 100 where 0 is no effect and 100 is complete control; 13 to 15 days
How it was run: (§3)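 Readout is a visual 0–100 score (100 = complete control) versus controls at 13–15 days. Plants at 2-leaf stage, flooded to 3 cm, treated through paddy water.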

[12] = tested on: ducksalad (Heteranthera limosa); test: Test C flooded paddy test plant response; conditions: Flood, 250 g ai/ha; scale of 0 to 100 where 0 is no effect and 100 is complete control; 13 to 15 days
How it was run: as §3

[13] = tested on: rice (Oryza sativa); test: Test C flooded paddy test plant response; conditions: Flood, 250 g ai/ha; scale of 0 to 100 where 0 is no effect and 100 is complete control; 13 to 15 days
How it was run: as §3

[14] = tested on: small-flower umbrella sedge (Cyperus difformis); test: Test C flooded paddy test plant response; conditions: Flood, 250 g ai/ha; scale of 0 to 100 where 0 is no effect and 100 is complete control; 13 to 15 days
How it was run: as §3

[15] = tested on: chickweed (common chickweed, Stellaria media); test: Test D postemergence plant response; conditions: for Plant response rating, Chickweed: scale 0 to 100, 0 no effect, 100 complete control
How it was run: (§4)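 Plants grown in pots of peat moss–vermiculite medium with wetting agent and starter nutrients received postemergence applications of the formulated test chemicals at 2 to 18 cm height (1- to 4-leaf stage). After 13 to 15 days in a greenhouse, injury was scored visually against untreated controls, 0 (no effect) to 100 (complete control).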

[16] = tested on: kochia (Kochia scoparia); test: Test D postemergence plant response; conditions: for Plant response rating, Kochia: scale 0 to 100, 0 no effect, 100 complete control
How it was run: as §4

[17] = tested on: wild oat (Avena fatua); test: Test D postemergence plant response
How it was run: as §4

[18] = 31 g ai/ha, Preemergence, 0 to 100 scale where 0 is no effect and 100 is complete control
[19] = 125 g ai/ha, postemergence, 0 to 100 scale, 0 no effect, 100 complete control
[20] = Postemergence, 31 g ai/ha, 0 to 100 scale (0 no effect, 100 complete control)
[21] = Preemergence, 125 g ai/ha, 0 to 100 scale (0 no effect, 100 complete control)
[22] = 31 g ai/ha, scale 0 to 100 (0 no effect, 100 complete control)

## FC(F)c1cc(-c2ccccc2Oc2ncc(Br)cn2)on1 [Compound 212]
[1]; [18]
  Plant response rating, Ryegrass, Italian: 0
[1]; [19]
  Plant response rating, Ryegrass, Italian: 20
[1]; [20]
  Plant response rating, Ryegrass, Italian: 0
[1]; [21]
  Ryegrass, Italian plant response rating: 40
[2]; [18]
  Plant response rating, Barnyardgrass: 10
[2]; [19]
  Plant response rating, Barnyardgrass: 30
[2]; [20]
  Plant response rating, Barnyardgrass: 0
[2]; [21]
  Barnyardgrass plant response rating: 60
[3]; [19]
  Plant response rating, Corn: 20
[3]; [20]
  Plant response rating, Corn: 10
[4]; [18]
  Plant response rating, Foxtail, Giant: 60
[4]; [19]
  Plant response rating, Foxtail, Giant: 70
[4]; [20]
  Plant response rating, Foxtail, Giant: 10
[4]; [21]
  Foxtail, Giant plant response rating: 100
[5]; [18]
  Plant response rating, Kochia: 40
[5]; [19]
  Plant response rating, Kochia: 100
[5]; [20]
  Plant response rating, Kochia: 90
[5]; [21]
  Kochia plant response rating: 90
[6]; [18]
  Plant response rating, Pigweed: 100
[6]; [19]
  Plant response rating, Pigweed: 100
[6]; [20]
  Plant response rating, Pigweed: 90
[6]; [21]
  Pigweed plant response rating: 100
[7]; [18]
  Plant response rating, Ragweed: 0
[7]; [19]
  Plant response rating, Ragweed: 60
[7]; [20]
  Plant response rating, Ragweed: 20
[7]; [21]
  Ragweed plant response rating: 40
[8]; [19]
  Plant response rating, Wheat: 10
[8]; [20]
  Plant response rating, Wheat: 0
[9]; [19]
  Plant response rating, Blackgrass: 50
[9]; [20]
  Plant response rating, Blackgrass: 10
[10]; [19]
  Plant response rating, Galium: 100
[10]; [20]
  Plant response rating, Galium: 60
[11]
  Barnyardgrass plant response rating: 0
[12]
  Ducksalad plant response rating: 75
[13]
  Rice plant response rating: 20
[14]
  Sedge, Umbrella plant response rating: 75
[15]; 16 g ai/ha
  Plant response rating (scale 0 to 100), Chickweed: 10
[15]; [22]
  Chickweed plant response rating: 30
[15]; 62 g ai/ha
  Plant response rating, Chickweed: 30
[15]; 125 g ai/ha
  Plant response rating, Chickweed: 80
[16]; 16 g ai/ha
  Plant response rating (scale 0 to 100), Kochia: 90
[16]; [22]
  Kochia plant response rating: 100
[16]; 62 g ai/ha
  Plant response rating, Kochia: 100
[16]; 125 g ai/ha
  Plant response rating, Kochia: 100
[17]; 16 g ai/ha
  Plant response rating (scale 0 to 100), Oat, Wild: 0
[17]; [22]
  Oat, Wild plant response rating: 0
[17]; 62 g ai/ha, scale 0 to 100, 0 no effect, 100 complete control
  Oat, Wild plant response rating: 5
[17]; 125 g ai/ha, scale 0 to 100, 0 no effect, 100 complete control
  Plant response rating, Oat, Wild: 10

## CC(F)(F)c1cc(-c2ccccc2Oc2ncc(Cl)cn2)no1 [Compound 220]
[1]; [18]
  Plant response rating, Ryegrass, Italian: 0
[1]; [19]
  Plant response rating, Ryegrass, Italian: 40
[1]; [20]
  Plant response rating, Ryegrass, Italian: 0
[1]; [21]
  Ryegrass, Italian plant response rating: 30
[2]; [18]
  Plant response rating, Barnyardgrass: 10
[2]; [19]
  Plant response rating, Barnyardgrass: 40
[2]; [20]
  Plant response rating, Barnyardgrass: 10
[2]; [21]
  Barnyardgrass plant response rating: 100
[3]; [19]
  Plant response rating, Corn: 20
[3]; [20]
  Plant response rating, Corn: 10
[4]; [18]
  Plant response rating, Foxtail, Giant: 70
[4]; [19]
  Plant response rating, Foxtail, Giant: 80
[4]; [20]
  Plant response rating, Foxtail, Giant: 30
[4]; [21]
  Foxtail, Giant plant response rating: 100
[5]; [18]
  Plant response rating, Kochia: 50
[5]; [19]
  Plant response rating, Kochia: 100
[5]; [20]
  Plant response rating, Kochia: 90
[5]; [21]
  Kochia plant response rating: 90
[6]; [18]
  Plant response rating, Pigweed: 100
[6]; [19]
  Plant response rating, Pigweed: 100
[6]; [20]
  Plant response rating, Pigweed: 100
[6]; [21]
  Pigweed plant response rating: 100
[7]; [18]
  Plant response rating, Ragweed: 0
[7]; [19]
  Plant response rating, Ragweed: 10
[7]; [20]
  Plant response rating, Ragweed: 0
[7]; [21]
  Ragweed plant response rating: 10
[8]; [19]
  Plant response rating, Wheat: 50
[8]; [20]
  Plant response rating, Wheat: 10
[9]; [19]
  Plant response rating, Blackgrass: 90
[9]; [20]
  Plant response rating, Blackgrass: 60
[10]; [19]
  Plant response rating, Galium: 100
[10]; [20]
  Plant response rating, Galium: 90
[11]
  Barnyardgrass plant response rating: 20
[12]
  Ducksalad plant response rating: 80
[13]
  Rice plant response rating: 0
[14]
  Sedge, Umbrella plant response rating: 75
[15]; 2 g ai/ha
  Plant response rating (scale 0 to 100), Chickweed: 5
[15]; 4 g ai/ha
  Plant response rating (scale 0 to 100), Chickweed: 10
[15]; 8 g ai/ha
  Plant response rating (scale 0 to 100), Chickweed: 40
[15]; 16 g ai/ha
  Plant response rating (scale 0 to 100), Chickweed: 40
[16]; 2 g ai/ha
  Plant response rating (scale 0 to 100), Kochia: 20
[16]; 4 g ai/ha
  Plant response rating (scale 0 to 100), Kochia: 50
[16]; 8 g ai/ha
  Plant response rating (scale 0 to 100), Kochia: 100
[16]; 16 g ai/ha
  Plant response rating (scale 0 to 100), Kochia: 100
[17]; 2 g ai/ha
  Plant response rating (scale 0 to 100), Oat, Wild: 0
[17]; 4 g ai/ha
  Plant response rating (scale 0 to 100), Oat, Wild: 0
[17]; 8 g ai/ha
  Plant response rating (scale 0 to 100), Oat, Wild: 0
[17]; 16 g ai/ha
  Plant response rating (scale 0 to 100), Oat, Wild: 5
